Measurements from patent US10167276B2, “Compounds and methods for inhibiting JAK” (Dizal (Jiangsu) Pharmaceutical Co., Ltd., priority 2015, dated 2019).

Legend:
[1] = tested on: STAT3 phosphorylation in NCI-H1975 cells; test: Cellular pSTAT3 assay in NCI-H1975 cells; type: cell-based; settings: Homo sapiens, 2 hours with compound
Method: NCI-H1975 cells were plated onto Costar #3701 96 or 384 well tissue-culture treated plates at 5,000 cells/well in 30 uL medium (RPMI, 10% FBS, supplemented with L-glutamine) and incubated overnight at 37° C. in 5% CO2. Phospho STAT3 signal was quantitated utilizing Cell Signaling Technology #7146B Pathscan […] STAT3 antibody pair kit, following manufacturer's instructions.
Cells were dosed with compound and incubated at 37° C. in 5% CO2 for 2 hours, after which medium and compound were aspirated and cells lysed with 35 uL cold 1×Cell Signaling Lysis buffer and chilled at 4° C. for 1-2 hours. Lysate was incubated on STAT3 capture plates at 4° C. overnight, washed 3× with Tris-Buffered Saline with 0.05% Tween® 20 (TBST), then […] STAT3 detection antibody was applied for 2 hours. Following washing with TBST (3×), HRP-secondary antibody was applied for 2 hours. After additional washing, signal was detected using TMB and Stop solution and read at 450 nm using Tecan Infinite M100.

JAK2 = JAK2 (Homo sapiens (Human), UniProt O60674); test: Enzyme inhibition studies, recombinant JAK2 (Caliper peptide phosphorylation); type: biochemical; settings: recombinant JAK2 (amino acids 831-1132); assayed at ATP Km (15 μM) and 5 mM ATP, table does not say which
Chain of JAK2 (O60674 831-1132): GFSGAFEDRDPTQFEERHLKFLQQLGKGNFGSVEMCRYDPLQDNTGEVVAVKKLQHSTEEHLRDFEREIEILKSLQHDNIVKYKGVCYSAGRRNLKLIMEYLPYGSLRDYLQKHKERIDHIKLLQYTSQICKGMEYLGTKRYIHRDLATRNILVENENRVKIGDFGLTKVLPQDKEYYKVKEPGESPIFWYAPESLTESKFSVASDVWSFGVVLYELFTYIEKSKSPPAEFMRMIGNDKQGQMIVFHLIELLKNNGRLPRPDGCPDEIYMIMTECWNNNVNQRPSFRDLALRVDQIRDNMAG
Method: (§1) Enzyme inhibition studies were performed using recombinant JAK1 (amino acids 866-1154, Life Technologies, #PV4774, Carlsbad, Calif.), JAK2 (amino acids 831-1132), or JAK3 (amino acids 781-1124) under buffer conditions of 50 mM HEPES pH 7.3, 1 mM DTT, 0.01% Tween® 20, 50 μg/mL BSA, and 10 mM MgCl2. JAK enzyme was expressed as an N-terminal GST fusion in insect cells and purified by glutathione-affinity and size-exclusion chromatographies. […] Phosphorylated and unphosphorylated peptides were separated and quantified by a Caliper LC3000 system (Caliper Life Sciences, MA) for calculating percent inhibition.

JAK1 = JAK1 (Homo sapiens (Human), UniProt P23458); test: Enzyme inhibition studies, recombinant JAK1 (Caliper peptide phosphorylation); type: biochemical; settings: recombinant JAK1 (amino acids 866-1154); assayed at ATP Km (55 μM) and 5 mM ATP, table does not say which
Chain of JAK1 (P23458 866-1154): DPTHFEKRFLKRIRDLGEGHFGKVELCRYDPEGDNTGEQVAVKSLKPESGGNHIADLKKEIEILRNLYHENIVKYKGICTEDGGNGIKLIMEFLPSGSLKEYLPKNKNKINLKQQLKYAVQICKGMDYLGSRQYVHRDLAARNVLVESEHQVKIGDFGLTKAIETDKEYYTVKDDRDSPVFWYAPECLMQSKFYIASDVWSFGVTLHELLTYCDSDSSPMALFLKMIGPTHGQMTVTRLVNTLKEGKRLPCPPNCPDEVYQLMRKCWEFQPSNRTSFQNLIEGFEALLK
Method: as §1

JAK3 = JAK3 (Homo sapiens (Human), UniProt P52333); test: Enzyme inhibition studies, recombinant JAK3 (Caliper peptide phosphorylation); type: biochemical; settings: recombinant JAK3 (amino acids 781-1124); assayed at ATP Km (3 μM) and 5 mM ATP, table does not say which
Chain of JAK3 (P52333 781-1124): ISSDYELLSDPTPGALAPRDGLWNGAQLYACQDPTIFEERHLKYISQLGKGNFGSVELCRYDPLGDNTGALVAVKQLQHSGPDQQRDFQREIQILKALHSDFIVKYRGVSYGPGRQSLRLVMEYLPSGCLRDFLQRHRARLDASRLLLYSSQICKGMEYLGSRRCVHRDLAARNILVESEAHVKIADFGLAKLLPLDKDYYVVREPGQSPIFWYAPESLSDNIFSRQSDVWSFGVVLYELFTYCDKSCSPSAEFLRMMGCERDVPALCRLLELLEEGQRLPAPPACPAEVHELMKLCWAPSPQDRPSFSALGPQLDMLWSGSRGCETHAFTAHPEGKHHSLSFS
Method: as §1

Row | SMILES | IC50 [1] | other results
1 | CC[C@@H](C(=O)Nc1cccc2c(-c3nc(Nc4cn(C)nc4C)ncc3F)c[nH]c12)N1CCN(C)CC1 [Example 50, (2S)-N-{3-[2-[(1,3-dimethyl-1H-pyrazol-4-yl)amino]-5-fluoropyrimidin-4-yl}-1H-indol-7-yl)-2-(4-methylpiperazin-1-yl)butanamide] | 999 nM | 
2 | CC[C@H](C(=O)Nc1cccc2c(-c3nc(Nc4cn(C)nc4OC)ncc3F)c[nH]c12)N1CCN(C)CC1 [Example 51, (2R)-N-(3-{5-fluoro-2-[(3-methoxy-1-methyl-1H-pyrazol-4-yl)amino]pyrimidin-4-yl}-1H-indol-7-yl)-2-(4-methylpiperazin-1-yl)butanamide] | 111 nM | 
3 | CC[C@@H](C(=O)Nc1cccc2c(-c3nc(Nc4cn(C)nc4OC)ncc3F)c[nH]c12)N1CCN(C)CC1 [Example 52, (2S)-N-(3-{5-fluoro-2-[(3-methoxy-1-methyl-1H-pyrazol-4-yl)amino]pyrimidin-4-yl}-1H-indol-7-yl)-2-(4-methylpiperaizn-1-yl)butanamide] | 548 nM | 
4 | COC[C@H](C(=O)Nc1cccc2c(-c3nc(Nc4cn(C)nc4C)ncc3F)c[nH]c12)N1CCN(C)CC1 [Example 53, (2R)-N-(3-{2-[(1,3-dimethyl-1H-pyrazol-4-yl)amino]-5-fluoropyrimidin-4-yl}-1H-indol-7-yl)-3-methoxy-2-(4-methylpiperazin-1-yl)propanamide] | 56.6 nM | 
5 | COC[C@@H](C(=O)Nc1cccc2c(-c3nc(Nc4cn(C)nc4C)ncc3F)c[nH]c12)N1CCN(C)CC1 [Example 54, (2S)-N-{3-[2-[(1,3-dimethyl-1H-pyrazol-4-yl)amino]-5-fluoropyrimidin-4-yl}-1H-indol-7-yl)-3-methoxy-2-(4-methylpiperazin-1-yl)propanamide] | > 3000 nM | 
6 | CCc1nn(C)cc1Nc1ncc(C)c(-c2c[nH]c3c(NC(=O)[C@@H](C)N4CCN(C)CC4)cccc23)n1 [Example 55, (2R)-N-(3-{2-[(3-ethyl-1-methyl-1H-pyrazol-4-yl)amino]-5-methylpyrimidin-4-yl}-1H-indol-7-yl)-2-(4-methylpiperazin-1-yl)propanamide] | 116 nM | 
7 | Cc1nn(C)cc1Nc1ncc(F)c(-c2c[nH]c3c(NC(=O)[C@@H](C)N4CCN(C)CC4)cccc23)n1 [Example 56, (2R)-N-(3-{2-[(1,3-dimethyl-1H-pyrazol-4-yl)amino]-5-fluoropyrimidin-4-yl}-1H-indol-7-yl)-2-(4-methylpiperaizn-1-yl)propanamide] | 126 nM | 
8 | Cc1nn(C)cc1Nc1nccc(-c2c[nH]c3c(NC(=O)[C@@H](C)N4CCN(C)CC4)cccc23)n1 [Example 57, (2R)-N-(3-{2-[(1,3-dimethyl-1H-pyrazol-4-yl)amino]pyrimidin-4-yl}-1H-indol-7-yl)-2-(4-methylpiperaizn-1-yl)propanamide] | 155 nM | 
9 | CCn1cc(Nc2ncc(C)c(-c3c[nH]c4c(NC(=O)[C@@H](C)N5CCN(C)CC5)cccc34)n2)c(OC)n1 [Example 58, (2R)-N-(3-{2-[(1-ethyl-3-methoxy-1H-pyrazol-4-yl)amino]-5-methylpyrimidin-4-yl}-1H-indol-7-yl)-2-(4-methylpiperazin-1-yl)propanamide] | 106 nM | 
10 | CCOc1nn(CC)cc1Nc1ncc(C)c(-c2c[nH]c3c(NC(=O)[C@@H](C)N4CCN(C)CC4)cccc23)n1 [Example 59, (2R)-N-(3-{2-[(3-ethoxy-1-ethyl-1H-pyrazol-4-yl)amino]-5-methylpyrimidin-4-yl}-1H-indol-7-yl)-2-(4-methylpiperazin-1-yl)propanamide] | 245 nM | 
11 | COC[C@H](C(=O)Nc1cccc2c(-c3ccnc(Nc4cn(C)nc4OC)n3)c[nH]c12)N1CCN(C)CC1 [Example 60, (2R)-3-Methoxy-N-(3-{2-[(3-methoxy-1-methyl-1H-pyrazol-4-yl)amino]pyrimidin-4-yl}-1H-indol-7-yl)-2-(4-methylpiperazin-1-yl)propanamide] | 97.3 nM | 
12 | COC[C@@H](C(=O)Nc1cccc2c(-c3ccnc(Nc4cn(C)nc4OC)n3)c[nH]c12)N1CCN(C)CC1 [Example 61, (2S)-3-Methoxy-N-(3-{2-[(3-methoxy-1-methyl-1H-pyrazol-4-yl)amino]pyrimidin-4-yl}-1H-indol-7-yl}-2-(4-methylpiperazin-1-yl)propanamide] | 1270 nM | 
13 | CCOc1nn(C)cc1Nc1ncc(C)c(-c2c[nH]c3c(NC(=O)[C@@H](CC)N4CCN(C)CC4)cccc23)n1 [Example 62, (2R)-N-(3-{2-[(3-ethoxy-1-methyl-1H-pyrazol-4-yl)amino]-5-methylpyrimidin-4-yl}-1H-indol-7-yl)-2-(4-methylpiperazin-1-yl)butanamide] | 104 nM | 
14 | CCOc1nn(C)cc1Nc1ncc(C)c(-c2c[nH]c3c(NC(=O)[C@H](CC)N4CCN(C)CC4)cccc23)n1 [Example 63, (2S)-N-(3-{2-[(3-ethoxy-1-methyl-1H-pyrazol-4-yl)amino]-5-methypyrimidin-4-yl}-1H-indol-7-yl)-2-(4-methylpiperazin-1-yl)butanamide] | 433 nM | 
15 | CCOc1nn(C)cc1Nc1ncc(C)c(-c2c[nH]c3c(NC(=O)[C@@H](COC)N4CCN(C)CC4)cccc23)n1 [Example 64, (2R)-N-(3-{2-[(3-ethoxy-1-methyl-1H-pyrazol-4-yl)amino]-5-methylpyrimidin-4-yl}-1H-indol-7-yl)-3-methoxy-2-(4-methylpiperazin-1-yl)propanamide] | 112 nM | IC50 (JAK2): 2040 nM; IC50 (JAK1): < 5 nM; IC50 (JAK3): > 30000 nM
16 | CCOc1nn(C)cc1Nc1ncc(C)c(-c2c[nH]c3c(NC(=O)[C@H](COC)N4CCN(C)CC4)cccc23)n1 [Example 65, (2S)-N-(3-{2-[(3-ethoxy-1-methyl-1H-pyrazol-4-yl)amino]-5-methylpyrimidin-4-yl}-1H-indol-7-yl)-3-methoxy-2-(4-methylpiperazin-1-yl)propanamide] | 1030 nM | IC50 (JAK2): > 30000 nM; IC50 (JAK1): 2530 nM; IC50 (JAK3): > 30000 nM
